Experimental data as given in the Deep4Chem optical property database.

Assay: solvent given as SMILES

CC(C)(C)c1ccc(N(c2ccc(C(C)(C)C)cc2)c2cc(N(c3ccc(C(C)(C)C)cc3)c3ccc(C(C)(C)C)cc3)c3ccc4cc(C(C)(C)C)cc5ccc2c3c54)cc1
absorption maximum (in ClCCl): 425 nm

COc1ccc(C#Cc2ccc(C#Cc3ccc(C#Cc4ccccc4C#N)cc3C#N)cc2C#N)cc1
absorption maximum (in C1CCOC1): 369 nm | absorption maximum (in CC#N): 364 nm | absorption maximum (in CN(C)C=O): 369 nm | absorption maximum (in ClC(Cl)Cl): 371 nm | absorption maximum (in c1ccccc1): 371 nm

CCCCCC#Cc1cc(C#CCCCCC)c2ccc3c(C(=O)c4ccccc4)cc(C#CCCCCC)c4ccc1c2c43
absorption maximum (in ClCCl): 416 nm

COc1cc(OC)cc(C2=C3C(C)=C(I)C(/C=C/c4ccsc4)=[N+]3[B-](F)(F)n3c(/C=C/c4ccsc4)c(I)c(C)c32)c1
absorption maximum (in C1CCOC1): 670 nm | absorption maximum (in CS(C)=O): 675 nm | absorption maximum (in ClCCl): 670 nm

CC(C)c1ccc(/C=C/c2nc3ccc(N(C)C)cc3s2)cc1
absorption maximum (in C1CCCCC1): 388 nm | absorption maximum (in CC#N): 392 nm

CC(C)(C)c1ccc(-c2ccc(C(C)(C)C)cc2)cc1
absorption maximum (in C1CCCCC1): 256 nm

O=c1c2cc(I)ccc2nc2n1[B-](F)(F)[n+]1ccccc1-2
absorption maximum (in CC#N): 345 nm | absorption maximum (in ClCCl): 362 nm

CCN(CC)c1ccc2c(c1)oc(=O)c1cc3c(C)nn(-c4ccccc4)c3nc12
absorption maximum (in ClCCl): 377 nm

CCC1=C(C2=C(C3=C(CC)S(=O)(=O)c4cc(-c5ccc(C(C)=O)s5)ccc43)C(F)(F)C(F)(F)C2(F)F)c2ccc(-c3ccc(C(C)=O)s3)cc2S1(=O)=O
absorption maximum (in C1COCCO1): 363 nm

CCCCOc1ccc(-c2oc3cc4n(c3c2-c2ccc(OCCCC)cc2)[B-](F)(F)[N+]2=Cc3cc5oc(-c6ccc(OCCCC)cc6)c(-c6ccc(OCCCC)cc6)c5n3[B-](F)(F)[N+]2=C4)cc1
absorption maximum (in C1CCOC1): 596 nm | absorption maximum (in CN(C)C=O): 593 nm | absorption maximum (in CS(C)=O): 594 nm | absorption maximum (in Cc1ccccc1): 608 nm | absorption maximum (in ClC(Cl)Cl): 610 nm | absorption maximum (in ClCCl): 606 nm

C[n+]1ccc(/C=C/c2ccc(N(c3ccccc3)c3ccc(/C=C/c4cc[n+](C)cn4)cc3)cc2)nc1
absorption maximum (in CS(C)=O): 500 nm | absorption maximum (in O): 525 nm | absorption maximum (in OCC(O)CO): 560 nm

CN(C)c1ccc(C2=[N+]3C(=Nc4c(-c5ccc(OCCCCS(=O)(=O)[O-])cc5)cc(-c5ccc(N(C)C)cc5)n4[B-]3(F)F)C(c3ccc(OCCCCS(=O)(=O)[O-])cc3)=C2)cc1
absorption maximum (in CS(C)=O): 786 nm

COc1cc2c(cc1OC)C1=C[C@H](c3ccc(Cl)cc3)C3(C(C#N)=C(C#N)N1CC2)c1cc(Cl)ccc1-c1ccc(Cl)cc13
absorption maximum (in ClCCl): 314 nm

F[B-]1(F)n2cccc2C(c2ccccc2)=C2C=CC(c3cccc(OC4=[N+]5C(=C(c6ccccc6)c6cc(Br)c(-c7ccc[nH]7)n6[B-]5(F)F)C=C4Br)c3)=[N+]21
absorption maximum (in ClC(Cl)Cl): 627 nm

CN(C)c1ccc(C2=CC3=C(c4ccc([N+](=O)[O-])cc4)[C@H]4c5ccccc5[C@]3(S2)c2ccccc24)cc1
absorption maximum (in ClCCl): 484 nm

CC[n+]1c(-c2ccccc2)c2cc(N)ccc2c2ccc(-n3cccc3)cc21
absorption maximum (in O): 454 nm

O=c1[nH]c2ccccc2[nH]1
absorption maximum (in C1CCOC1): 291 nm | absorption maximum (in CC#N): 281 nm | absorption maximum (in CC(C)=O): 285 nm | absorption maximum (in CCCCCCC): 292 nm | absorption maximum (in CCCCCl): 287 nm | absorption maximum (in CCCCO): 280 nm | absorption maximum (in CCCO): 280 nm | absorption maximum (in CCCOCCC): 280 nm | absorption maximum (in CCO): 280 nm

COc1c2ccccc2c(OC)c2c1c1ccc(F)cc1n2C
absorption maximum (in C1CCCCC1): 395 nm | absorption maximum (in CC#N): 398 nm | absorption maximum (in CO): 396 nm | absorption maximum (in ClCCl): 398 nm

COc1ccc2cc(/C=C/C3=C4CCc5ccccc5C4=[O+][B-](F)(F)O3)ccc2c1
absorption maximum (in ClCCl): 479 nm

COc1cc(C2CC(=O)Oc3c2c2nc4ccc(C)cc4nc2c2ccccc32)cc(OC)c1OC (stereo not drawn)
absorption maximum (in ClC(Cl)Cl): 412 nm

Cc1cc(=O)oc2c1cc(Br)c1occ(C)c12
absorption maximum (in C1CCCCC1): 333 nm | absorption maximum (in CCO): 330 nm
